# Laboratory results reported in patent publication US10829478B2, “5-[3-[piperazin-1-yl]-3-oxo-propyl]-imidazolidine-2,4-dione derivatives as ADAMTS 4 and 5 inhibitors for treating e.g. osteoarthritis” (Galapagos NV, priority 2016, dated 2020).
# Like-named read-outs stand apart in the source and are kept apart here.
# Experiments:
# human MMP14 = human MMP14 (Homo sapiens (Human), UniProt P50281); assay: hMMP14 assay (390 MMP FRET Substrate I); assay type: biochemical; details: human MMP14 (Biomol), read-out: hMMP-14 potency IC50
# Description: The basis for the assay is the cleavage of the substrate 390 MMP FRET Substrate I (Anaspec Cat #AS-27076) by human MMP14 (Biomol, Cat #SE-259).
# The reaction is initiated by adding to the assay plate 390 MMP FRET Substrate I (10 μL, 2.5 μM) in the same buffer.
# Finally, the fluorescence is read on the Envision (Perkin Elmer) after an incubation of 60 min at room temperature (Excitation 485 nm, Emission 530).
# human ADAMTS-5 = human ADAMTS-5 (Homo sapiens (Human), UniProt Q9UNA0); assay: hADAMTS-5 TBIS-1 cleavage assay, Protocol 3; assay type: biochemical; details: 90 min at 37° C., read-out: hADAMTS-5 potency IC50
# Chain of human ADAMTS-5 (Q9UNA0 262-930): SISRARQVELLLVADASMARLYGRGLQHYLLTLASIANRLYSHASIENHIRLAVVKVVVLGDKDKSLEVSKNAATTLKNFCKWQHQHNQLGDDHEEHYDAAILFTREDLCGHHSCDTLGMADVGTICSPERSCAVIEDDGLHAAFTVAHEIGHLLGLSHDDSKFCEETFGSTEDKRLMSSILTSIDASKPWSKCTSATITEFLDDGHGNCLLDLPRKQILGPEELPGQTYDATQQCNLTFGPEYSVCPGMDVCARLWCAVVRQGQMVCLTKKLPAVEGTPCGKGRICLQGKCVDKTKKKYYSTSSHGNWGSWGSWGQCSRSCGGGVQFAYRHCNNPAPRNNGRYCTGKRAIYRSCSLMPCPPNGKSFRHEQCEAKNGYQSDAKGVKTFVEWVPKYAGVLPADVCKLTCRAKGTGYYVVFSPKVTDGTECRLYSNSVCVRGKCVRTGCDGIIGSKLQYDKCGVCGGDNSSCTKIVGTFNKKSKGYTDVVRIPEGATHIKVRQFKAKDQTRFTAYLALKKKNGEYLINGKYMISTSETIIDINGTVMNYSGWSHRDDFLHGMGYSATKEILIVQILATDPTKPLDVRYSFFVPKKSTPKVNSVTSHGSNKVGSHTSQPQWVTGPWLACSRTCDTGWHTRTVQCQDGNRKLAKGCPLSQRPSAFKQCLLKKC
# Description: The reaction is initiated by adding to the assay plate TBIS-1 (10 μL, 4.5 μM, Anaspec) in the same buffer.
# Finally, the fluorescence is read on the Envision (Perkin Elmer) after an incubation of 90 min at 37° C. (Excitation 485 nm, emission 530).
# human ADAMTS4 = human ADAMTS4 (Homo sapiens (Human), UniProt O75173); assay: hADAMTS-4 TBIS-1 cleavage assay, Protocol 2; assay type: biochemical
# Chain of human ADAMTS4 (O75173 213-837): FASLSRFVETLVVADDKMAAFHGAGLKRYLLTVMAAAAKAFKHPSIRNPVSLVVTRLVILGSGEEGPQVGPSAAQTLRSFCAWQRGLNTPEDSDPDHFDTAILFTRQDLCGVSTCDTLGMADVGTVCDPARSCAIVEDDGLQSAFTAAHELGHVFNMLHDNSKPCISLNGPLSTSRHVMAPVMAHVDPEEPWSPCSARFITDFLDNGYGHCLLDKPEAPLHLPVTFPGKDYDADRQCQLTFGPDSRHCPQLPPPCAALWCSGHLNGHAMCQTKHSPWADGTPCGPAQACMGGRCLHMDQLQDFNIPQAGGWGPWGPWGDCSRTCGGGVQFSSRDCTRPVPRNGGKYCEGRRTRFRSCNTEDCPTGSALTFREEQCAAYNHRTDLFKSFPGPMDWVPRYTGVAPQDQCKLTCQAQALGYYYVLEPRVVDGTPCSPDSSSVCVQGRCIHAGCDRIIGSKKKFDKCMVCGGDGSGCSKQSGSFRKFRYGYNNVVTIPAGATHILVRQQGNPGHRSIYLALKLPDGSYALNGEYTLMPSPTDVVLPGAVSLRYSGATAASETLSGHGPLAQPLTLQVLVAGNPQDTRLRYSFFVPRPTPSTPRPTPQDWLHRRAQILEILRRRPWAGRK
# human ADAMTS6 = human ADAMTS6 (Homo sapiens (Human), UniProt Q9UKP5); assay: hADAMTS-6 fluorescent based protease assay (520 MMP FRET substrate XII); assay type: biochemical; details: 37° C. for 2 h; read-out: hADAMTS-6 potency IC50
# Chain of human ADAMTS6 (Q9UKP5 other isoform, or with tags, fused parts or gaps): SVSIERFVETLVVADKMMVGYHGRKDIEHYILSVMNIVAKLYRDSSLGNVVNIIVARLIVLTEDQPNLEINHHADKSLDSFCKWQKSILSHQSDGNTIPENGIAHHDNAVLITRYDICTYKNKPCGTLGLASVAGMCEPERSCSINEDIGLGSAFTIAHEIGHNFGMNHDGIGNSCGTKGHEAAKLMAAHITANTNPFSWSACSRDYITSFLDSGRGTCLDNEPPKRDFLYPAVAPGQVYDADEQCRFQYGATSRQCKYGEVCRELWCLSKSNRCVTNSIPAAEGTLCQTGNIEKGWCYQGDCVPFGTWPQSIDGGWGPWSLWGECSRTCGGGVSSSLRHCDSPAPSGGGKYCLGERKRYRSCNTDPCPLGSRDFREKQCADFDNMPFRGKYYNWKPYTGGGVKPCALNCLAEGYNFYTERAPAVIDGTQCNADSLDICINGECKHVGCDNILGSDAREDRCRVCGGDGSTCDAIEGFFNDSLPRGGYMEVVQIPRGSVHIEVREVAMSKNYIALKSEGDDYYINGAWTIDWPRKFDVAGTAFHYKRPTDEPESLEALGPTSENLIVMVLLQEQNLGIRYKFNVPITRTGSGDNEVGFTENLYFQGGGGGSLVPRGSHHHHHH
# In short: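 ADAMTS6 (0.73 nM final) in 25 mM Tris pH 8.0, 0.05% CHAPS, 2.5 mM CaCl2 with compound dilution series (top 20 μM, 1/5 steps). Reaction started with 520 MMP FRET Substrate XII, incubated 2 h at 37 °C. Substrate cleavage read by fluorescence ex485/em530; IC50 determined.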
# human MMP13 [1] = molecular target: T1, human MMP13 (Homo sapiens (Human), UniProt P45452); assay: hMMP13 assay, Protocol 1 (390 MMP FRET Substrate I, Chemicon enzyme); assay type: biochemical; details: Protocol 1, human MMP13 (Chemicon), read-out: hMMP-13 potency IC50
# Description: (§1) Human MMP13 is preactivated by incubated the enzyme in the same buffer complemented with 1 mM freshly prepared p-Aminophenylmercuric acetate (AMPA) for 1 h at 37° C.
# human TACE = human TACE (Homo sapiens (Human), UniProt P78536); assay: biochemical
# Chain of human TACE (P78536 215-671): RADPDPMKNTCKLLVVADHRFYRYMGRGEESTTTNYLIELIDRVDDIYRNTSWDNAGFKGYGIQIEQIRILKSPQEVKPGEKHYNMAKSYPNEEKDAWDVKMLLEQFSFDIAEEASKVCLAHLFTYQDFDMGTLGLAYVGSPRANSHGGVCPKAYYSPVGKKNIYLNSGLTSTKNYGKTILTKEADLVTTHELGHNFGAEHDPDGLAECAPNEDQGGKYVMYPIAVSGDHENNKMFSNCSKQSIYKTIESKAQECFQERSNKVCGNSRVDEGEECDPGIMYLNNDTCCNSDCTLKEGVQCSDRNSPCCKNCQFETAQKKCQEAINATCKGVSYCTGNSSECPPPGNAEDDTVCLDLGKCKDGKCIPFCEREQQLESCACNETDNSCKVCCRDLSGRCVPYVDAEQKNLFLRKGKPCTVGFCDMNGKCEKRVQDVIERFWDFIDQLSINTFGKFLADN
# Description: Finally, the fluorescence is read on the Envision (Perkin Elmer) after an incubation of 75 min at room temperature (Excitation 485 nm, Emission 530).
# rnADAMTS-5 (1-564-6H) = rnADAMTS-5 (1-564-6H) (Rattus norvegicus (Rat), UniProt Q6TY19); assay: Rat ADAMTS-5 TBIS-1 cleavage assay; assay type: biochemical; details: 120 min at 37° C.; read-out: Rat ADAMTS-5 potency IC50
# Chain of rnADAMTS-5 (1-564-6H) (Q6TY19 entry or part of it): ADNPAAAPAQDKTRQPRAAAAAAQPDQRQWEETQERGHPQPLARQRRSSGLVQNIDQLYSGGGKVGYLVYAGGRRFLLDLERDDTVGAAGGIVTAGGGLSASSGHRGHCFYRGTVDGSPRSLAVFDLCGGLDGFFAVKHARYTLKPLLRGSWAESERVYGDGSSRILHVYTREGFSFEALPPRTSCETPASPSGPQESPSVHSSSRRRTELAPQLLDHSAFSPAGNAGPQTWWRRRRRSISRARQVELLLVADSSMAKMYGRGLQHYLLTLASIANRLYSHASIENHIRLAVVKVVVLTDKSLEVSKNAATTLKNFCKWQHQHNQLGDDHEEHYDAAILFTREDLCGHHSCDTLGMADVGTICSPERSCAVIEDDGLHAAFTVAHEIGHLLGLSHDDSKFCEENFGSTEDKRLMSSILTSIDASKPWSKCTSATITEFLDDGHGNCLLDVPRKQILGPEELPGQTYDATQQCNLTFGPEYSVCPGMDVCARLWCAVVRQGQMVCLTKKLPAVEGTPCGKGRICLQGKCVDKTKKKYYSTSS
# human MMP13 [2] = molecular target: T1, human MMP13; assay: hMMP13 assay, Protocol 2 (390 MMP FRET Substrate I, Enzo enzyme); assay type: biochemical; details: Protocol 2, human MMP13 (Enzo Life Sciences), read-out: hMMP-13 potency IC50
# Description: as §1
# [3] = Protocol 2, 180 min at 37° C., read-out: ADAMTS4 potency IC50
SMILES,IC50 (human ADAMTS-5) [nM],IC50 (human ADAMTS6) [nM],IC50 (human MMP13 [1]) [nM],IC50 (human TACE) [nM],IC50 (rnADAMTS-5 (1-564-6H)) [nM],IC50 (human ADAMTS4; [3]) [nM],IC50 (human MMP13 [2]) [nM],IC50 (human MMP14) [nM],IC50 (human ADAMTS4) [nM]
"COc1cc(N2CCN(C(=O)[C@@H](C)C[C@@]3(C)NC(=O)NC3=O)C[C@@H]2C)cc(F)c1F (mixture of isomers) [Cpd 42, 5-[3-[(3S)-4-(3,4-difluoro-5-methoxy-phenyl)-3-methyl-piperazin-1-yl]-2-methyl-3-oxo-propyl]-5-methyl-imidazolidine-2,4-dione]",0.001 to 25,0.001 to 25,> 100,> 100,0.001 to 25,–,–,> 100,25 to 50
"COc1cc(N2CCN(C(=O)[C@@H](C)C[C@@]3(C)NC(=O)NC3=O)CC2)cc(F)c1F (stereo in doubt) [Cpd 43, 5-[3-[4-(3,4-difluoro-5-methoxy-phenyl)piperazin-1-yl]-2-methyl-3-oxo-propyl]-5-methyl-imidazolidine-2,4-dione]",0.001 to 25,0.001 to 25,> 100,> 100,0.001 to 25,–,–,> 100,25 to 50
"COc1cc(N2CCN(C(=O)CCC3(C)NC(=O)NC3=O)C[C@@H]2C)ccc1Cl (stereo partly drawn) [Cpd 24, 5-[3-[(3S)-4-(4-chloro-3-methoxy-phenyl)-3-methyl-piperazin-1-yl]-3-oxo-propyl]-5-methyl-imidazolidine-2,4-dione]",25 to 50,0.001 to 25,> 100,> 100,50 to 100,> 100,–,> 100,–
"COc1cc(N2CCN(C(=O)CCC3(C)NC(=O)NC3=O)C[C@@H]2C)cc(OC)c1Cl (stereo partly drawn) [Cpd 30, 5-[3-[(3 S)-4-(4-chloro-3,5-dimethoxy-phenyl)-3-methyl-piperazin-1-yl]-3-oxo-propyl]-5-methyl-imidazolidine-2,4-dione]",> 100,0.001 to 25,> 100,> 100,> 100,> 100,–,–,–
"COc1cc(N2CCN(C(=O)CCC3(C)NC(=O)NC3=O)CC2)cc(OC)c1Cl (stereo not drawn) [Cpd 31, 5-[3-[4-(4-chloro-3,5-dimethoxy-phenyl)piperazin-1-yl]-3-oxo-propyl]-5-methyl-imidazolidine-2,4-dione]",> 100,0.001 to 25,> 100,> 100,> 100,> 100,–,–,–
"COc1cc(N2CCN(C(=O)CCC3(C)NC(=O)NC3=O)CC2)c(C)cc1Cl (stereo not drawn) [Cpd 34, 5-[3-[4-(4-chloro-5-methoxy-2-methyl-phenyl)piperazin-1-yl]-3-oxo-propyl]-5-methyl-imidazolidine-2,4-dione]",> 100,25 to 50,> 100,> 100,> 100,> 100,–,–,–
"COc1cc(N2CCN(C(=O)CCC3(C)NC(=O)NC3=O)C[C@@H]2C)c(C)cc1Cl (stereo partly drawn) [Cpd 36, 5-[3-[(3 S)-4-(4-chloro-5-methoxy-2-methyl-phenyl)-3-methyl-piperazin-1-yl]-3-oxo-propyl]-5-methyl-imidazolidine-2,4-dione]",> 100,25 to 50,> 100,> 100,> 100,> 100,–,–,–
"COc1cc(N2CCN(C(=O)CC[C@@]3(C4CC4)NC(=O)NC3=O)C[C@@H]2C)cc(F)c1F [Cpd 37, (5S)-5-cyclopropyl-5-[3-[(3 S)-4-(3,4-difluoro-5-methoxy-phenyl)-3-methyl-piperazin-1-yl]-3-oxo-propyl]imidazolidine-2,4-dione]",0.001 to 25,0.001 to 25,> 100,> 100,0.001 to 25,–,–,> 100,25 to 50
"COc1cc(N2CCN(C(=O)CCC3(C)NC(=O)NC3=O)CC2)cc(F)c1Cl (stereo not drawn) [Cpd 38, 5-[3-[4-(4-chloro-3-fluoro-5-methoxy-phenyl)piperazin-1-yl]-3-oxo-propyl]-5-methyl-imidazolidine-2,4-dione]",> 100,0.001 to 25,> 100,> 100,50 to 100,> 100,–,–,–
"COc1cc(N2CCN(C(=O)CCC3(C)NC(=O)NC3=O)C[C@@H]2C)cc(F)c1Cl (stereo partly drawn) [Cpd 39, 5-[3-[(3S)-4-(4-chloro-3-fluoro-5-methoxy-phenyl)-3-methyl-piperazin-1-yl]-3-oxo-propyl]-5-methyl-imidazolidine-2,4-dione]",50 to 100,0.001 to 25,> 100,> 100,50 to 100,> 100,–,–,–

# Further lines, with some results ahead:
IC50 (human ADAMTS-5) [nM],IC50 (human ADAMTS6) [nM],IC50 (human MMP13 [1]) [nM],IC50 (human TACE) [nM],IC50 (rnADAMTS-5 (1-564-6H)) [nM],IC50 (human ADAMTS4; [3]) [nM],IC50 (human MMP13 [2]) [nM],SMILES,IC50 (human MMP14) [nM],IC50 (human ADAMTS4) [nM]
25 to 50,0.001 to 25,> 100,> 100,0.001 to 25,> 100,–,"COc1cc(N2CCN(C(=O)[C@@H](C)C[C@@]3(C)NC(=O)NC3=O)C[C@@H]2C)ccc1Cl (stereo in doubt) [Cpd 41, 5-[3-[4-(4-chloro-3-methoxy-phenyl)-3-methyl-piperazin-1-yl]-2-methyl-3-oxo-propyl]-5-methyl-imidazolidine-2,4-dione]",> 100,–
50 to 100,0.001 to 25,–,> 100,50 to 100,> 100,> 100,"COc1cc(N2CCN(C(=O)[C@@H](C)C[C@@]3(CN4CCC(F)(F)C4)NC(=O)NC3=O)CC2)cc(F)c1F (stereo in doubt) [Cpd 52, 5-[3-[4-(3,4-difluoro-5-methoxy-phenyl)piperazin-1-yl]-2-methyl-3-oxo-propyl]-5-[(3,3-difluoropyrrolidin-1-yl)methyl]imidazolidine-2,4-dione]",> 100,–
> 100,0.001 to 25,> 100,> 100,> 100,> 100,–,"COc1cc(N2CCN(C(=O)CC[C@H]3NC(=O)NC3=O)C[C@@H]2C)cc(F)c1F [Cpd 129, (5R)-5-[3-[(3S)-4-(3,4-difluoro-5-methoxy-phenyl)-3-methyl-piperazin-1-yl]-3-oxo-propyl]imidazolidine-2,4-dione]",–,–
> 100,25 to 50,> 100,> 100,> 100,> 100,–,"COc1cc(OC)cc(N2CCN(C(=O)CC[C@H]3NC(=O)NC3=O)C[C@@H]2C)c1 [Cpd 132, (5R)-5-[3-[(3 S)-4-(3,5-dimethoxyphenyl)-3-methyl-piperazin-1-yl]-3-oxo-propyl]imidazolidine-2,4-dione]",–,–
> 100,0.001 to 25,> 100,> 100,> 100,> 100,–,"COc1cc(N2CCN(C(=O)CC[C@H]3NC(=O)NC3=O)C[C@@H]2C)ccc1Cl [Cpd 133, (5R)-5-[3-[(3 S)-4-(4-chloro-3-methoxy-phenyl)-3-methyl-piperazin-1-yl]-3-oxo-propyl]imidazolidine-2,4-dione]",–,–
> 100,0.001 to 25,> 100,> 100,> 100,> 100,–,"COc1cc(N2CCN(C(=O)CC[C@H]3NC(=O)NC3=O)CC2)cc(OC)c1Cl [Cpd 135, (5R)-5-[3-[4-(4-chloro-3,5-dimethoxy-phenyl)piperazin-1-yl]-3-oxo-propyl]imidazolidine-2,4-dione]",–,–
> 100,> 100,> 100,> 100,> 100,> 100,–,"COc1cc(N2CCN(C(=O)CC[C@H]3NC(=O)NC3=O)CC2)c(C)cc1Cl [Cpd 138, (5R)-5-[3-[4-(4-chloro-5-methoxy-2-methyl-phenyl)piperazin-1-yl]-3-oxo-propyl]imidazolidine-2,4-dione]",–,–
> 100,0.001 to 25,> 100,> 100,50 to 100,> 100,–,"COc1cc(N2CCN(C(=O)CC[C@H]3NC(=O)NC3=O)C[C@@H]2C)cc(OC)c1Cl [Cpd 139, (5R)-5-[3-[(3 S)-4-(4-chloro-3,5-dimethoxy-phenyl)-3-methyl-piperazin-1-yl]-3-oxo-propyl]imidazolidine-2,4-dione]",–,–
> 100,50 to 100,> 100,> 100,> 100,> 100,–,"COc1cc(N2CCN(C(=O)CC[C@H]3NC(=O)NC3=O)C[C@@H]2C)c(C)cc1Cl [Cpd 142, (5R)-5-[3-[(3S)-4-(4-chloro-5-methoxy-2-methyl-phenyl)-3-methyl-piperazin-1-yl]-3-oxo-propyl]imidazolidine-2,4-dione]",–,–
50 to 100,0.001 to 25,> 100,> 100,50 to 100,> 100,–,"COc1cc(N2CCN(C(=O)CC[C@H]3NC(=O)NC3=O)C[C@@H]2C)cc(F)c1Cl [Cpd 144, (5R)-5-[3-[(3 S)-4-(4-chloro-3-fluoro-5-methoxy-phenyl)-3-methyl-piperazin-1-yl]-3-oxo-propyl]imidazolidine-2,4-dione]",–,–
